Where a name gives a salt, the structure may show the parent alone.
Columns and labels:
[1] = target: T1, 5HT2 receptor (Rattus norvegicus, UniProt P14842); test: In Vitro Inhibition of 5HT2-Receptor Binding (3H-Ketanserine); parameters: species or system rat (male Wistar); conditions: 3H-Ketanserine 0.4 nM, rat frontal cortex, 37° C., 15 min
T1 construct: incubated with isolated cell-membrane fragments; from tissue; host or cells: frontal cortex of male Wistar rats (membranes)
Protocol: In Vitro Inhibition of 5HT2 -Receptor Binding
(§1) Radioactive-labelled ligand ^3 H-Ketanserine is incubated with isolated cell-membrane fragments at 37° C. for a given period of time. Following completed incubation, the incubate is filtered through GF/B filters which are rinsed after filtration to remove unspecifically adhered radioactivity. As opposed to low-molecular compounds, membrane fragments are not rinsed through the filters, the radioactivity bound to the filters indicates the amount of ligand bound specifically as well as non-specifically to the membranes.
The preparation is made in ice bath. Polytron kinematica is rinsed with milli-Q-H2 O before and after use. Male Wistar rats, 150-200 g are decapitated. Frontal cortex is removed quickly and weighed (approx. 200 mg). Frontal cortex is added to centrifuging vial containing 10 ml ice-cold D2 buffer. Homogenization applying polytron kinematica (homogenizer) setting 6 for 20 sec. The homogenizer is rinsed with 10 ml D2 buffer in another centrifuging vial. The 10 ml rinsing buffer is added to the tissue vial. Centrifuged at 18,000 rpm for 10 min. at 4° C. Final pellet is transferred to 125×vol. of same buffer. (Ex. 200 mg in 25 ml D2 buffer). Can be stored for approx. 30 min. at 0° C.
25 μl ^3 H-Ketanserine (0.4 nM)
25 μl test substance/H2 O/blind cyproheptadine (2 μM)
Incubation for 15 min. at 37° C.
10 ml ice-cold 0.9% NaCl is added to the tubes. Filtration is performed through GF/B filters (use gloves). This procedure is repeated. Filters are placed in counting vials, and 4 ml opti- flour is added (prepare in fume cupboard, use gloves). Counting at window 0-19 of the beta-counter (Pachard). Note that receptor box and lid are rinsed thoroughly in H2 O after use to avoid contamination. Further the analytical site is cleaned carefully every day.
(§2) Dissolved in H2 O, EtOH, MeOH or DMSO and further diluted in H2 O. The 5HT2 binding will stand concentrations of up to approx. 5% of these solvents without affecting the binding. Most stock solutions are stable at 4° C. Attention should, however, be paid to any precipitation, change in colour etc. Test-substance dilutions are always made fresh every day. When weighing out test substance, it is attempted to weigh out approx. 1 mg of substance. Less than 0.8 mg must never be weighed out and only infrequently more than 2 mg (for economy reasons) dependent, however, on conc./assay.

[2] = target: Dopamine D2 receptor (Rattus norvegicus, UniProt P61169); test: In-Vitro Inhibition of Dopamine D2 Receptor Binding (3H-Spiroperidol); parameters: species or system rat (male Wistar); conditions: 3H-Spiroperidol 0.05 nM, rat striatum, 37° C., 20 min
Protocol: In-Vitro Inhibition of Dopamine D2 Receptor Binding,
as §1, with “H-Spiroperidol” for “H-Ketanserine”, “following” for “after”, “low- molecular” for “low-molecular”, “is indicative of” for “indicates”, “nonspecifically” for “non-specifically”
The procedure is performed in ice bath. Polytron kinematica is rinsed with milli-Q-H2 O before and after use. Male Wistar rats, 150-200 g are decapitated, striatum is removed quickly and weighed (approx. 50 mg). Striatum is transferred to a centrifuging vial containing 10 ml ice-cold D2 buffer. Homogenization is performed applying polytron kinematica (homogenizer) setting 6 for 20 sec. The homogenizer is rinsed with 10 ml D2 buffer in another centrifuging vial. The 10 ml rinsing buffer is added to the tissue vial. Centrifugation at 18,000 rpm for 10 min. at 4° C. Final pellet is transferred to 1,000×vol. of same buffer. (Ex. 50 mg striatum in 50 ml D2 buffer). Can be stored at 0° C. for at least 4 hours. Note that the tissue must homogeneous (uniform) before use. If not, brief homogenization is performed.
2,500 μl tissue (homogeneous)
25 μl ^3 H-Spiroperidol (0.05 nM)
25 μl test substance/H2 O/blind (Domperidone 0.2 μM)
Incubation for 20 min. at 37° C.-10 min. on ice bath.
10 ml ice-cold 0.9% NaCl is added to the tubes and filtered through GF/B filters (use gloves). This procedure is repeated. The filters are placed in counting vials and 4 ml opti-flour is added (perform in fume cupboard, use gloves). Counting is performed at window 0-19 of the beta-counter (Pachard). Note that receptor box and lid are rinsed thoroughly in H2 O after use to avoid contamination. Further, the analytical site is cleaned carefully every day after use.
as §2, with “D2” for “5HT2”, “20%” for “5%”, “C., attention is,” for “C. Attention should,”, “however,” for “however, be”, “substances,” for “substance,”, “reasons),” for “reasons)”

T1 sequence (P14842 whole entry, the tested form may be a part): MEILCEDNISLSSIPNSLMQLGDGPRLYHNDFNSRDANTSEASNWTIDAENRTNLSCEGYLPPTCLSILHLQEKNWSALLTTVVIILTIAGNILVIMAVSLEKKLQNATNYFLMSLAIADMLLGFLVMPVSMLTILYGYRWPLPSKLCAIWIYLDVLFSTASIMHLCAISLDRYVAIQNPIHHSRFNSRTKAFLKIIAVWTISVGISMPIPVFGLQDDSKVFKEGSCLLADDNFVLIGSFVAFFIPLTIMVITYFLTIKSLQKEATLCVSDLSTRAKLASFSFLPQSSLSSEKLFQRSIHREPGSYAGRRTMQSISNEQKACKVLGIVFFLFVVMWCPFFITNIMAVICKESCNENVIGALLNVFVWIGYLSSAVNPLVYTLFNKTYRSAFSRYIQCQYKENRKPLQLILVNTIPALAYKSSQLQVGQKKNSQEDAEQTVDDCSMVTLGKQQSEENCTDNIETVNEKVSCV
Sequence of Dopamine D2 receptor (P61169 whole entry): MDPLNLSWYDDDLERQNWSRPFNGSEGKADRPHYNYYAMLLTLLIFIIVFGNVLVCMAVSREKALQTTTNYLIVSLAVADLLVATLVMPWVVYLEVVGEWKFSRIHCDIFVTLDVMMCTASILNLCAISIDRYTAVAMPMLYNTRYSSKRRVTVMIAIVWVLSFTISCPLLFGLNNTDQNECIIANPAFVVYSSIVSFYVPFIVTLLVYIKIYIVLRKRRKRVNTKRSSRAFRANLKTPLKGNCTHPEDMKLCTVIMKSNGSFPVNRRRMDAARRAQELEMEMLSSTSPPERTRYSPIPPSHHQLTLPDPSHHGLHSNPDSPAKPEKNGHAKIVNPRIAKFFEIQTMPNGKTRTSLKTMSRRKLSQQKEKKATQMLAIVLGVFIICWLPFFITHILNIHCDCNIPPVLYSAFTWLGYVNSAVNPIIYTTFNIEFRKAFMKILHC

Structure (SMILES): COc1cc(NC(=O)OCCCN2CCN(c3ccccc3Cl)CC2)cc(OC)c1OC.Cl [Example 3, 4-(2-Chlorophenyl)-1-[3-(3,4,5-trimethoxyphenylcarbamoyloxy)propyl]piperazine, hydrochloride]
- IC50 [1]: 7.5 nM
- IC50 [2]: 120 nM

Structure (SMILES): COc1cc(NC(=O)OCCCN2CCN(c3ccc(F)cc3)CC2)cc(OC)c1OC [Example 8, 4-(4-Fluorophenyl)-1-[3-(3,4,5-trimethoxyphenylcarbamoyloxy)propyl]piperazine, hydrochloride]
- IC50 [1]: 10 nM
- IC50 [2]: 720 nM

Structure (SMILES): O=C(Nc1ccc2ncsc2c1)OCCCN1CCN(c2ccc(Cl)cc2)CC1 [Example 19, 4-(4-Chlorophenyl)-1-[3-(6-benzothiazolylcarbamoyloxy)propyl]piperazine, hydrochloride]
- IC50 [1]: 22 nM
- IC50 [2]: 150 nM

Structure (SMILES): COc1ccc2cccc(N3CCN(CCCOC(=O)Nc4ccc5c(c4)OCO5)CC3)c2c1 [Example 34, 1-(7-Methoxy-1-naphthyl)-4-[3-(3,4-methylenedioxyphenylcarbamoyloxy)propyl]piperazine, HCl]
- IC50 [1]: 13 nM
- IC50 [2]: 4.3 nM

From patent publication US5246935A, “Piperazinyl derivatives and methods of treating central nervous system ailments relating to the 5-HT2 receptor system” (Novo Nordisk A/S, priority 1990, dated 1993)
